This is an account of results in patent publication US5733913A, “6-Aryl pyrido[2,3-d] pyrimidines and naphthyridines for inhibiting protein tyrosine kinase mediated cellular proliferation” (priority 1995, dated 1998).

Where two headings read alike, the source gives them in different places.

The target in one experiment is T1, C-src kinase (Homo sapiens, UniProt P12931).
T1 construct: made in house; host or cells: baculovirus-infected insect cells
Put plainly: C-src kinase assay. Type of experiment: biochemical. Particulars: read-out: Inhibition of Protein Tyrosine Kinases, C-src, IC50. An outline of the steps:
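Baculovirus-expressed c-src immunopurified on antibody-coated latex beads, assayed in 40 mM Tris pH 7.5, 5 mM MgCl2 with poly GluTyr substrate and 5 μM ATP plus 32P-ATP. Reaction 10 min at room temperature, TCA-quenched, filtered; incorporated label counted by scintillation.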

The target in experiment [1] is T2, Human EGF receptor tyrosine kinase (Homo sapiens, UniProt P00533).
T2 construct: isolated from A431 epidermoid carcinoma cells; endogenous in cells; host or cells: A431 epidermoid carcinoma cells (Triton lysate, wheat germ agglutinin eluate)
Briefly: EGF receptor tyrosine kinase assay. The format is biochemical. Particulars: read-out: Inhibition of Protein Tyrosine Kinases, EGF, IC50. The method, then: Purification of Epidermal Growth Factor Receptor Tyrosine Kinase
Human EGF receptor tyrosine kinase was isolated from A431 epidermoid carcinoma cells by the following methods. Cells were grown in roller bottles in 50% Delbuco's Modified Eagle and 50% HAM F-12 nutrient media (Gibco) containing 10% fetal calf serum. Approximately 10^9 cells were lysed in two volumes of buffer containing 20 mM 2-(4N-[2-hydroxyethyl]piperazin-1-yl)ethanesulfonic acid, pH 7.4, 5 mM ethylene glycol bis(2-aminoethyl ether)N,N,N',N'-tetraacetic acid, 1% Triton X-100, 10% glycerol, 0.1 mM sodium orthovanadate, 5 mM sodium fluoride, 4 mM pyrophosphate, 4 mM benzamide, 1 mM dithiothreitol, 80 μg/mL aprotinin, 40 μg/mL leupeptin, and 1 mM phenylmethylsulfonyl fluoride. After centrifugation at 25,000×g for 10 minutes, the supernatant was equilibrated for 2 hours at 4° C. with 10 mL of wheat germ agglutinin sepharose that was previously equilibrated with 50 mM Hepes, 10% glycerol, 0.1% Triton X-100 and 150 mM NaCl, pH 7.5, (equilibration buffer). Contaminating proteins were washed from the resin with 1M NaCl in equilibration buffer, and the enzyme was eluted with 0.5M N-acetyl-1-D-glucosamine in equilibration buffer.
Determination of IC50 Values
The reaction was terminated by the addition of 2 mL of 75 mM phosphoric acid and passed through a 2.5-cm phosphocellulose filter disc to bind the peptide. The filter was washed five times with 75 mM phosphoric acid and placed in a vial along with 5 mL of scintillation fluid (Ready gel Beckman).

The target of experiment [2] is T3, human FGF-1 (flg) receptor tyrosine kinase (Homo sapiens, UniProt P11362).
T3 construct: a fragment of DNA that codes for the intracellular tyrosine kinase domain; made in house; host or cells: Sf9 insect cells (baculovirus), cell lysate
Put plainly: FGF receptor tyrosine kinase assay. Type of experiment: biochemical. The note with it: read-out: Inhibition of Protein Tyrosine Kinases, FGF, IC50. An outline of the steps: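 Intracellular kinase domains expressed in baculovirus-infected SF9 cells; crude lysate used as enzyme. Inhibitor preincubated 10 min at 25 °C with lysate in pH 7.0 Hepes buffer with 10 mM MnCl2 and poly(Glu-Tyr) 4:1, then γ-32P-ATP (50 μM ATP) added for 10 min at 25 °C. TCA-precipitated 32P on filters counted, no-enzyme background subtracted.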

The subject of experiment [3] is Rat aorta smooth muscle cells (RASMC). Briefly: [3H]-Thymidine incorporation assay in RASMC. The format is cell-based. Particulars: read-out: Inhibition of Growth Factor Stimulated Uptake of [3H]-thymidine (IC50). The method, then: Cell Culture Rat aorta smooth muscle cells (RASMC) were isolated from the thoracic aorta of rats and explanted according to the method of Ross, J. Cell. Biol., 30:172-186 (1971). Cells were grown in Dulbecco's modified Eagle's medium (DMEM, Gibco) containing 10% fetal calf serum (FBS, Hyclone, Logan, Utah), 1% glutamine (Gibco) and 1% penicillin/streptomycin (Gibco). Cells were identified as smooth muscle cells by their "hill and valley" growth pattern and by fluorescent staining with a monoclonal antibody specific for SMC […] (Sigma). RASMC were used between passages 5 and 20 for all experiments. Test compounds were prepared in dimethylsulfoxide (DMSO) in order to achieve consistency in the vehicle and to ensure compound solubility. Appropriate DMSO controls were simultaneously evaluated with the test compounds. […] RASMC were plated into a 24-well plate (30,000 cells/well) in DMEM with 10% FBS. After 4 days, cells reached confluence and were made quiescent by incubation in DMEM/F12 medium (Gibco) containing 0.2% FBS for another 2 days. […] […] The acid-insoluble fraction was lysed in 0.75 mL 0.25N NaOH and the radioactivity determined by liquid scintillation counting. IC50 values were determined graphically.
(In general: Dividing cells build labelled thymidine or BrdU into new DNA.)

T2 sequence (P00533 25-1210): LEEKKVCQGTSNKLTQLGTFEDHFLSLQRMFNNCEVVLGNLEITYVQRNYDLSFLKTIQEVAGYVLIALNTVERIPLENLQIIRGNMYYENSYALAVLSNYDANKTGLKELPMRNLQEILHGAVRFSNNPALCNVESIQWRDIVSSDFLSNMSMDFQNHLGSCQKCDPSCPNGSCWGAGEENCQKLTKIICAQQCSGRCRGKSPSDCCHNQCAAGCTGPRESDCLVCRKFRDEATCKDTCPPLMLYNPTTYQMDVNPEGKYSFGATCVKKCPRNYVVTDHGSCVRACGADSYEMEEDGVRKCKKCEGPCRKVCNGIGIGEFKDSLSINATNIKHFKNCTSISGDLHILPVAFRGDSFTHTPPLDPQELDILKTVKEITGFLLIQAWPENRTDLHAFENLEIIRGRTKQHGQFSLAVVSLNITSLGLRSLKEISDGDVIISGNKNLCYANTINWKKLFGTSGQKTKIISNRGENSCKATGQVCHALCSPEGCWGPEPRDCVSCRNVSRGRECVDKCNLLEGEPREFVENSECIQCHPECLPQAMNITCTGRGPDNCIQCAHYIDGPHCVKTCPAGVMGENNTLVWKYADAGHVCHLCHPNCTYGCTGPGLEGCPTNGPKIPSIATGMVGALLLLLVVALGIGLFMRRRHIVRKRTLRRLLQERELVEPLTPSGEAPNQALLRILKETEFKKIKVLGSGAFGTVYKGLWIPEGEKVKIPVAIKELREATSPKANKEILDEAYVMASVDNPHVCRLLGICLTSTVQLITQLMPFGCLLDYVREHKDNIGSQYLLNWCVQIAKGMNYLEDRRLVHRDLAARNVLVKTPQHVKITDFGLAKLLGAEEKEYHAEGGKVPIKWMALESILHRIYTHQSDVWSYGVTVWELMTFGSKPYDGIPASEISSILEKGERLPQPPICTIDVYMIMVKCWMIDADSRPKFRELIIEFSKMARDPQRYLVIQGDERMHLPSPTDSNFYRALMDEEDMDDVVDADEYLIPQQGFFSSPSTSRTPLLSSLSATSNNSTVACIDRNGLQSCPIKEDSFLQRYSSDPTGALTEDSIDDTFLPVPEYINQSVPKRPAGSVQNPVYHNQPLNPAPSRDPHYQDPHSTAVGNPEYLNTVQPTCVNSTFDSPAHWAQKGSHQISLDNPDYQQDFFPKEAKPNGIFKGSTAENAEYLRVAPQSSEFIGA
T3 sequence (P11362 478-767 limits assumed): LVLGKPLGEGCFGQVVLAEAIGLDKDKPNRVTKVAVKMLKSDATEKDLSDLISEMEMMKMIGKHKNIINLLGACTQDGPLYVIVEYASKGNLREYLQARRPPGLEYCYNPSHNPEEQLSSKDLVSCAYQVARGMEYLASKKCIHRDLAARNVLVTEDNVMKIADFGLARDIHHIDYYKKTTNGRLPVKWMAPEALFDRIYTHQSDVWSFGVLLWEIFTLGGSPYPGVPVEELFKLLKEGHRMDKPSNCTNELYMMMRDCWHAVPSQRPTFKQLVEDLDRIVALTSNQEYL
T1 sequence (P12931 whole entry): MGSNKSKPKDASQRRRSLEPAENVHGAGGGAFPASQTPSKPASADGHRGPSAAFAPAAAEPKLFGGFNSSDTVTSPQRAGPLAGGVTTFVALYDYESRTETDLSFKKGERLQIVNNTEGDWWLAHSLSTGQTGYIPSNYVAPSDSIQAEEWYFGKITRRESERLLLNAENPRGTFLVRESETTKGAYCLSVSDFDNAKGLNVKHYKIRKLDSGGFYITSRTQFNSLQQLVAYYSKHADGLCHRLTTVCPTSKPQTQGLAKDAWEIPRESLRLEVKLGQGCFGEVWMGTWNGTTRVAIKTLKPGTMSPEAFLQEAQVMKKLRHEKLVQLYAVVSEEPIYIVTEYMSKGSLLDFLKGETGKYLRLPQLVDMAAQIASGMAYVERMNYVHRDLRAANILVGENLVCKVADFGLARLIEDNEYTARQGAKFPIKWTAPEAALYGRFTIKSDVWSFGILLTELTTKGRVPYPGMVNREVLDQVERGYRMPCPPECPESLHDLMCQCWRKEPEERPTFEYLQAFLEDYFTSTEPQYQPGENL

As for `Cc1ccccc1-c1cc2cnc(N)nc2nc1N` [Example 90, 6-o-Tolyl-pyrido[2,3-d]pyrimidine-2,7-diamine], the IC50 on C-src kinase is 1.63 µM; in experiment [1], 22.8 µM; in experiment [2] it was 11.5 µM; in experiment [3] (FGF stimulated), 20 µM; in experiment [3] (PDGF stimulated) it was over 10 µM.

As usually defined, the IC50 is the concentration needed to halve the response being measured.
